Key:
[1] = test system: D4 and CD8 antibodies activity; experiment: CytoxiLux analysis (flow cytometry, FIGS. 1A-B); assay type: cell-based; conditions: lymphoma C57 mice
Experimental: FIGS. 1A-B show flow cytometry results for CD4 and CD8 immunostaining cells
(§1) Lymphoma cells line growth in the culture for days to reach about 10×10^3, then it is implanted into the right arm of mice C57, about one week, tumor grow to 1 cm size. We prepared that Bruceantin […], Adymicine 10 mg and hapten DNP 0.5 mg were added into the stannous chloride 0.05 mg solution for mixture incubate 5 minutes and produced a conjugated as complex. For treatment group: iv injection of this conjugated solution in 0.2 ml, two-time/week fro three weeks, for control group: iv injection of only 0.2 ml Ara-C, two-time/week for three weeks.

CD4 and CD8 [2] = experiment: Immunological pathological analysis of removed osteosarcoma tumor (CD4, CD8); assay type: in vivo; conditions: C57 mice, after three weeks iv treatment
Experimental: Osteosarcoma cell line growth in the culture for days to reach 10×10^3, then it is implanted into right arm of mice C57, wait about one week, tumor grow to 1 cm size. We prepared that Methylene Diphosphonate (MDP) 100 mg, Ara-C 50 mg and hapten DNP 0.5 mg were added into the stannous chloride 0.05 mg solution for mixture, incubate 5 minutes and produced a conjugated as complex. For treatment group: iv injection of this conjugated solution in 0.2 ml, two time/week for three weeks, for control group: iv injection of only 0.2 ml Ara-C, two time/week for three weeks. […] Surgical removed tumor for immunological pathological analysis, CD4 and CD8 show positive for MDP-Ara-C-DNP conjugated therapy group, control group show negative of CD4 and CD8.

CD4 and CD8 [3] = experiment: Immunological pathological analysis of removed lymphoma tumor (CD4, CD8); assay type: in vivo; conditions: C57 mice, after three weeks iv treatment
Experimental: as §1

non-Hodgkin lymphoma = experiment: Patient case: malignant lymphoma, chemotherapy and intravenous target therapy; assay type: in vivo, human; conditions: one patient, DDP, Vp-16 and IF0 given together
Experimental: From November of 2002 to August of 2003, the radiotherapy at both axillary regions was administered with DT49Gy, the radiotherapy at both neck regions were administered with DT45Gy. […] The hydrops was drawn off by puncture from the right thoracic cavity, cytology reported: a large amount of lymphocytes and mesothelial cells. The patient was admitted to the hospital for further treatment.
The B ultrasonotrophy on Feb.
After the intravenous target therapy of Bruceantin, Tetrandrine, thalicarpine, maytansine seperately as target agents in combination with anti-cancer drugs by stannous chloride affection for a conjugate as complex for six courses (all kinds of anti-cancer drugs), the effect was obvious.
From Feb. 27, 2006 to Mar. 24, 2006, the intravenous target chemotherapy of Bruceantin and Tetrandrine separately as target agents in combination with anti-cancer drugs by stannous chloride effective for conjugate as complex was administered for a period of four week. On Mar.
The intravenous target chemotherapy of Bruceantin as targeting compound in combination with anti-cancer drugs by stannous chloride function for conjugate as complex was continued for several courses. The CT re-examination in Shandong Medical Imaging Research Institute on Jul.
During the hospitalization, the patient was administered Bruceantin as targeting compound, in combination with the medicaments of 16 times (Arsenic trioxide 5 mg) and 6 times (Ara-C 50 mg), 12 times (cyclophosphamide 0.1), 2 times and VP 16) 50 mg.

[4] = test system: gastric antrum cancer, intrahepatic lump; conditions: human, in vivo, iv
Experimental: The lateral lump by the lesser curvature of gastric antrum was administered a intratumoral chemotherapy for 3 times/week for three weeks, the lump at the head of pancreas region was administered intratumoral chemotherapy for 2 times/week fro two weeks, abdominal cavity was perfused for 6 times, in which 5-Fu+DDP 20 mg+IL-2 10^6 u were administered for 2 times, Bruceantin plus Adriamycin were perfused to abdominal cavity for 4 times in three weeks.
The intrahepatic lump was administered intratumoral chemotherapy for once. […] ETIFENIN (EHIDA) as target agent in combination with anticancer drugs plus stannous chloride were mixed for a conjugate as a complex, then it was administered intravenous for target therapy and repeated same therapy for 6 times (the formulated medicament mainly comprises: DDP 20 mg for 2 times, 5-Fu 0.5 for 2 times, Ara-C 25 mg for 2 times).

Nc1ccn([C@@H]2O[C@H](CO)[C@@H](O)[C@@H]2O)c(=O)n1 [Ara-C, Cytidine Arabinosyladenine] was tested, and the “index of D4 and CD8 antibodies activity” value [1] was 28%, the “CD4 and CD8 in removed tumor” value (CD4 and CD8 [2]) was “negative” and the “CD4 and CD8 in removed tumor” value (CD4 and CD8 [3]) was “negative”.
With N.N.[Cl][Pt][Cl] [DDP, Cisplatin] the “bone marrow inhibition after chemotherapy” value (“bone marrow inhibition” for short) (non-Hodgkin lymphoma) was “inhibited to the III degree”.
For O=P1(NCCCl)OCCCN1CCCl (stereo not shown) [IF0], the “bone marrow inhibition” value (non-Hodgkin lymphoma) was “inhibited to the III degree”.
For COc1cc([C@@H]2c3cc4c(cc3[C@@H](O[C@@H]3O[C@@H]5CO[C@@H](C)O[C@H]5[C@H](O)[C@H]3O)[C@H]3COC(=O)[C@H]23)OCO4)cc(OC)c1O [Vp-16], the “bone marrow inhibition” value (non-Hodgkin lymphoma) was “inhibited to the III degree”.
“ETIFENIN (EHIDA) as target agent in combination with anticancer drugs” was tested, and the symptoms after treatment [4] was “abdominal pain, abdominal distention, decreased appetite, accompanied by night sweating and debilitation”.

From US9000036B2, “Compositions and methods for targeting of treating neoplasms” (priority 2006, dated 2015)
